# Measured values reported in patent publication US12540131B2 (Merck Sharp & Dohme LLC, priority 2019, dated 2026).
# Target: GST tagged truncated human mutant G2019S LRRK2 (Homo sapiens (Human), UniProt Q5S007, G2019S)
# Assay: LRRK2 Km ATP LanthaScreen Assay
# Type: biochemical
# Conditions: G2019S LRRK2, 134 μM ATP (Km ATP), mean values
# Summary of the method: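 Enzyme (GST-tagged, truncated) was preincubated with compound for 15 min at RT in 50 mM Tris pH 8.5, 10 mM MgCl2, 0.01% Brij-35, 1 mM EGTA, 2 mM DTT and 0.05 mM orthovanadate. Fluorescein-LRRKtide and 134 μM ATP (Km) were then added for 90 min. EDTA and Tb-anti-pERM antibody stopped the reaction; the TR-FRET 520/495 ratio gave 4-parameter IC50s, reported as mean pIC50.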
# GST tagged truncated human mutant G2019S LRRK2, sequence (Q5S007 970-2527 G2019S): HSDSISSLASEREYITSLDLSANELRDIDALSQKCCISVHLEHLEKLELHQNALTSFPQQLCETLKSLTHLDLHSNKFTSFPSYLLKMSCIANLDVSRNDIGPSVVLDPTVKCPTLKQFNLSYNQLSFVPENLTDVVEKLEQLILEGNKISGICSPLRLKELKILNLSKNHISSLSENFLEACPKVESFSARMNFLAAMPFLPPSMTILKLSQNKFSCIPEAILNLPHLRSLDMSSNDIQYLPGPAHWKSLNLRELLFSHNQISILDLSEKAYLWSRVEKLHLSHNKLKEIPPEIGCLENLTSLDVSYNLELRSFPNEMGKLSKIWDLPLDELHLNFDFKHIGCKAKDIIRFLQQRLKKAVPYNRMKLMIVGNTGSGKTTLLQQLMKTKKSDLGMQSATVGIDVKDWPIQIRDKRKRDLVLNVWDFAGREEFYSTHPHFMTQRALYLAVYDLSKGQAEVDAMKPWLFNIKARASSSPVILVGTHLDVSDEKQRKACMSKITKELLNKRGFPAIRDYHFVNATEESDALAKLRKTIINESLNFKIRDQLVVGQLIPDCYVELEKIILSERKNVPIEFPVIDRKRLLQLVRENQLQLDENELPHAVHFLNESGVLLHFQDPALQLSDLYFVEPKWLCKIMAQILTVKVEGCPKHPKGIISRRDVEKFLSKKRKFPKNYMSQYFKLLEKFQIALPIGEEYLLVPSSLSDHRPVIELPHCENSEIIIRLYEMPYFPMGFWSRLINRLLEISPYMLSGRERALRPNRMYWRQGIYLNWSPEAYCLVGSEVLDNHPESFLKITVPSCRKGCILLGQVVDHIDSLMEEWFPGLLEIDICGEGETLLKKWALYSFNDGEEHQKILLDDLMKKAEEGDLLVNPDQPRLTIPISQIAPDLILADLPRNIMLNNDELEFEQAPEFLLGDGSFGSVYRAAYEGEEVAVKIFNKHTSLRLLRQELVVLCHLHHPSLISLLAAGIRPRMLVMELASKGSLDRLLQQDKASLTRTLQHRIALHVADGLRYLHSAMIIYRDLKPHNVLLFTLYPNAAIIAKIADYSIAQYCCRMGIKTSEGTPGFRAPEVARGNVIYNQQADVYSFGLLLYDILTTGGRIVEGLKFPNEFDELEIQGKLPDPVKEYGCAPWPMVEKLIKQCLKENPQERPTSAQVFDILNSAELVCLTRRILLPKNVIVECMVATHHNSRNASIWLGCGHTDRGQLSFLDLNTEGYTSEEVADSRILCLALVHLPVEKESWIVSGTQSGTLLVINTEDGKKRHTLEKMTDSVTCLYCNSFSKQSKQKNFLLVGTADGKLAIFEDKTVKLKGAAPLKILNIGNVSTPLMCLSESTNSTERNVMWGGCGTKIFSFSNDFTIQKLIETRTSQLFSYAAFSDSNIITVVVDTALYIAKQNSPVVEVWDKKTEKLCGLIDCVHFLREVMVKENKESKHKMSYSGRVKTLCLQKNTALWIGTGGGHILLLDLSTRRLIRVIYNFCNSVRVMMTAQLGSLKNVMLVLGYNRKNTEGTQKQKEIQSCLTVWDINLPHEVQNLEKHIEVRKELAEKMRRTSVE
row,Structure (SMILES),LRRK2 pIC50
1,"CC1(n2ncc(Nc3ncc4cc(Cl)c([C@H]5CCN(C6COC6)C[C@@H]5F)cc4n3)c2Cl)CC1 (single isomer, unassigned) [Ex-4.28, (3S,4S) or (3R,4R) 6-chloro-N-[5-chloro-1-(1-methylcyclopropyl)-1H-pyrazol-4-yl]-7-[3-fluoro-1-(oxetan-3-yl)piperidin-4-yl]quinazolin-2-amine]",>9.20
2,"CN1CC[C@@H](c2cc3nc(Nc4cnn(C5(C)CC5)c4Cl)ncc3cc2Cl)[C@H](O)C1 (single isomer, unassigned) [Ex-4.29, (3S,4S) or (3R,4R) 4-(6-chloro-2-{[5-chloro-1-(1-methylcyclopropyl)-1H-pyrazol-4-yl]amino}quinazolin-7-yl)-1-methylpiperidin-3-ol]",8.07
3,"CN1CC[C@H](c2cc3nc(Nc4cnn(C5(C)CC5)c4Cl)ncc3cc2Cl)[C@@H](O)C1 (single isomer, unassigned) [Ex-4.30, (3S,4S) or (3R,4R) 4-(6-chloro-2-{[5-chloro-1-(1-methylcyclopropyl)-1H-pyrazol-4-yl]amino}quinazolin-7-yl)-1-methylpiperidin-3-ol]",7.32
4,"F[C@@H]1CN(C2COC2)CC[C@H]1c1cc2nc(Nc3cnn(C4CC4)c3Cl)ncc2cc1Cl (single isomer, unassigned) [Ex-4.34, (3S,4S) or (3R,4R) 6-chloro-N-(5-chloro-1-cyclopropyl-1H-pyrazol-4-yl)-7-[3-fluoro-1-(oxetan-3-yl)piperidin-4-yl]quinazolin-2-amine]",9.12
5,"F[C@H]1CN(C2COC2)CC[C@@H]1c1cc2nc(Nc3cnn(C4CC4)c3Cl)ncc2cc1Cl (single isomer, unassigned) [Ex-4.35, (3S,4S) or (3R,4R) 6-chloro-N-(5-chloro-1-cyclopropyl-1H-pyrazol-4-yl)-7-[3-fluoro-1-(oxetan-3-yl)piperidin-4-yl]quinazolin-2-amine]",>9.20
6,"FC(F)Cn1ncc(Nc2ncc3cc(Cl)c([C@@H]4CCN(C5COC5)C[C@H]4F)cc3n2)c1Cl (single isomer, unassigned) [Ex-4.37, (3S,4S) or (3R,4R) 6-chloro-N-[5-chloro-1-(2,2-difluoroethyl)-1H-pyrazol-4-yl]-7-[3-fluoro-1-(oxetan-3-yl)piperidin-4-yl]quinazolin-2-amine]",9.15
7,"FC(F)Cn1ncc(Nc2ncc3cc(Cl)c([C@H]4CCN(C5COC5)C[C@@H]4F)cc3n2)c1Cl (single isomer, unassigned) [Ex-4.38, (3S,4S) or (3R,4R) 6-chloro-N-[5-chloro-1-(2,2-difluoroethyl)-1H-pyrazol-4-yl]-7-[3-fluoro-1-(oxetan-3-yl)piperidin-4-yl]quinazolin-2-amine]",9.11
8,"CN1CC[C@@H](c2cc3nc(Nc4cnn(C5CC5)c4Cl)ncc3cc2Cl)[C@H](F)C1 (single isomer, unassigned) [Ex-4.39, (3S,4S) or (3R,4R) 6-chloro-N-(5-chloro-1-cyclopropyl-1H-pyrazol-4-yl)-7-(3-fluoro-1-methylpiperidin-4-yl)quinazolin-2-amine]",>9.20
9,"CN1CC[C@H](c2cc3nc(Nc4cnn(C5CC5)c4Cl)ncc3cc2Cl)[C@@H](F)C1 (single isomer, unassigned) [Ex-4.40, (3S,4S) or (3R,4R) 6-chloro-N-(5-chloro-1-cyclopropyl-1H-pyrazol-4-yl)-7-(3-fluoro-1-methylpiperidin-4-yl)quinazolin-2-amine]",>9.20
10,"F[C@H]1CN(C2COC2)C[C@@H]1c1cc2nc(Nc3cnn(C4CC4)c3Cl)ncc2cc1Cl (single isomer, unassigned) [Ex-4.41, (3S,4R) or (3R,4S) 6-chloro-N-(5-chloro-1-cyclopropyl-1H-pyrazol-4-yl)-7-[4-fluoro-1-(oxetan-3-yl)pyrrolidin-3-yl]quinazolin-2-amine]",7.31
11,"F[C@@H]1CN(C2COC2)C[C@H]1c1cc2nc(Nc3cnn(C4CC4)c3Cl)ncc2cc1Cl (single isomer, unassigned) [Ex-4.42, (3S,4R) or (3R,4S) 6-chloro-N-(5-chloro-1-cyclopropyl-1H-pyrazol-4-yl)-7-[4-fluoro-1-(oxetan-3-yl)pyrrolidin-3-yl]quinazolin-2-amine]",7.21
12,"CC(C)(O)Cn1ncc(Nc2ncc3cc(Cl)c([C@@H]4CCN(C5COC5)C[C@H]4F)cc3n2)c1Cl (single isomer, unassigned) [Ex-4.43, (3S,4S) or (3R,4R) 1-[5-chloro-4-({6-chloro-7-[3-fluoro-1-(oxetan-3-yl)piperidin-4-yl]quinazolin-2-yl}amino)-1H-pyrazol-1-yl]-2-methylpropan-2-ol]",9.16
13,"CC(C)(O)Cn1ncc(Nc2ncc3cc(Cl)c([C@H]4CCN(C5COC5)C[C@@H]4F)cc3n2)c1Cl (single isomer, unassigned) [Ex-4.44, (3S,4S) or (3R,4R) 1-[5-chloro-4-({6-chloro-7-[3-fluoro-1-(oxetan-3-yl)piperidin-4-yl]quinazolin-2-yl}amino)-1H-pyrazol-1-yl]-2-methylpropan-2-ol]",>9.20
14,"CC1OCC1N1CCC(c2cc3nc(Nc4cnn(C5CC5)c4Cl)ncc3cc2Cl)CC1 (single isomer, unassigned) [Ex-4.46, (2R,3R) or (2S,3S) or (2S,3R) or (2R,3S) 6-chloro-N-(5-chloro-1-cyclopropyl-1H-pyrazol-4-yl)-7-[1-(2-methyloxetan-3-yl)piperidin-4-yl]quinazolin-2-amine]",9.13
15,"CC1OCC1N1CCC(c2cc3nc(Nc4cnn(C5CC5)c4Cl)ncc3cc2Cl)CC1 (single isomer, unassigned) [Ex-4.47, (2R,3R) or (2S,3S) or (2S,3R) or (2R,3S) 6-chloro-N-(5-chloro-1-cyclopropyl-1H-pyrazol-4-yl)-7-[1-(2-methyloxetan-3-yl)piperidin-4-yl]quinazolin-2-amine]",7.62
16,"Cc1cc(Nc2ncc3cc(Cl)c([C@@H]4CCN(C5COC5)C[C@H]4F)cc3n2)sn1 (single isomer, unassigned) [Ex-4.50, (3S,4S) or (3R,4R) 6-chloro-7-[3-fluoro-1-(oxetan-3-yl)piperidin-4-yl]-N-(3-methyl-1,2-thiazol-5-yl)quinazolin-2-amine]",>9.20
17,"Cc1cc(Nc2ncc3cc(Cl)c([C@H]4CCN(C5COC5)C[C@@H]4F)cc3n2)sn1 (single isomer, unassigned) [Ex-4.51, (3S,4S) or (3R,4R) 6-chloro-7-[3-fluoro-1-(oxetan-3-yl)piperidin-4-yl]-N-(3-methyl-1,2-thiazol-5-yl)quinazolin-2-amine]",>9.20
18,"Cc1cc(Nc2ncc3cc(Cl)c([C@H]4CCN(C)C[C@@H]4F)cc3n2)sn1 (single isomer, unassigned) [Ex-4.53, (3S,4S) or (3R,4R) 6-chloro-7-(3-fluoro-1-methylpiperidin-4-yl)-N-(3-methyl-1,2-thiazol-5-yl)quinazolin-2-amine]",>9.20
19,"CC(n1ncc(Nc2ncc3cc(Cl)c([C@@H]4CCN(C)C[C@H]4F)cc3n2)c1Cl)C(C)(C)O (single isomer, unassigned) [Ex-4.60, (R)(3S,4S) or (R)(3R,4R) or (S)(3S,4S) or (S)(3R,4R) 3-(5-chloro-4-{[6-chloro-7-(3-fluoro-1-methylpiperidin-4-yl)quinazolin-2-yl]amino}-1H-pyrazol-1-yl)-2-methylbutan-2-ol]",8.69
20,"CC(n1ncc(Nc2ncc3cc(Cl)c([C@@H]4CCN(C)C[C@H]4F)cc3n2)c1Cl)C(C)(C)O (single isomer, unassigned) [Ex-4.61, (R)(3S,4S) or (R)(3R,4R) or (S)(3S,4S) or (S)(3R,4R) 3-(5-chloro-4-{[6-chloro-7-(3-fluoro-1-methylpiperidin-4-yl)quinazolin-2-yl]amino}-1H-pyrazol-1-yl)-2-methylbutan-2-ol]",8.80

# Same assay, conditions: G2019S LRRK2, 134 μM ATP (Km ATP), mean values; read-out: LRRK2 pIC50 (converted)
row,Structure (SMILES),IC50 [nM]
1,"Clc1cc2cnc(Nc3cnn(C4CC4)c3Cl)nc2cc1C1CCN(C2COC2)C1 (single isomer, unassigned) [Ex-4.32, (S) or (R) 6-chloro-N-(5-chloro-1-cyclopropyl-1H-pyrazol-4-yl)-7-[1-(oxetan-3-yl)pyrrolidin-3-yl]quinazolin-2-amine]",16.6
2,"Clc1cc2cnc(Nc3cnn(C4CC4)c3Cl)nc2cc1C1CCN(C2COC2)C1 (single isomer, unassigned) [Ex-4.33, (S) or (R) 6-chloro-N-(5-chloro-1-cyclopropyl-1H-pyrazol-4-yl)-7-[1-(oxetan-3-yl)pyrrolidin-3-yl]quinazolin-2-amine]",8.13
3,"Clc1cc2cnc(Nc3cnn(C4CC4)c3Cl)nc2cc1C1CCN(C2CCOC2)CC1 (single isomer, unassigned) [Ex-4.48, (S) or (R) 6-chloro-N-(5-chloro-1-cyclopropyl-1H-pyrazol-4-yl)-7-[1-(oxolan-3-yl)piperidin-4-yl]quinazolin-2-amine]",0.891
4,"Clc1cc2cnc(Nc3cnn(C4CC4)c3Cl)nc2cc1C1CCN(C2CCOC2)CC1 (single isomer, unassigned) [Ex-4.49, (S) or (R) 6-chloro-N-(5-chloro-1-cyclopropyl-1H-pyrazol-4-yl)-7-[1-(oxolan-3-yl)piperidin-4-yl]quinazolin-2-amine]",< 0.631
